Here are results for 1 compound from paper PMC10064330, “Reversible Dual-Covalent Molecular Locking of the 14-3-3/ERRγ Protein–Protein Interaction as a Molecular Glue Drug Discovery Approach” (Journal of the American Chemical Society, 2023).

The target of one test is T1, 14-3-3γ/SOS1 complex (Homo sapiens, UniProt P61981).
T1 construct: made in house; host or cells: E. coli NiCo21 (DE3)
T1 sequence (P61981 1-247): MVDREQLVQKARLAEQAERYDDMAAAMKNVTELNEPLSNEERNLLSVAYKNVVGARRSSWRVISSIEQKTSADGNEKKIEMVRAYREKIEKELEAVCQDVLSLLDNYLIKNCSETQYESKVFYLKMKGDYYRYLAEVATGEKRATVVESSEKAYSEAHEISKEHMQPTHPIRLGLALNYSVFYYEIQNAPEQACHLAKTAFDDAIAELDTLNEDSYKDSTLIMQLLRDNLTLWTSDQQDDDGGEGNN
Kind of test: FA selectivity screen, SOS1 client peptide. The conditions noted are these: 100 μM compound, SOS1 peptide (+1 Ala). The test is classed as binding. As for the experimental part:
(§1) Drugging the hub protein 14-3-3 raises the challenge of selectivity, given that 14-3-3 binds several hundred phosphoprotein partners (Figure 4a).[54] We hypothesized that the interplay of chemical reactivity, the topology, and functionality of the composite binding pocket shaped by 14-3-3 and the interaction partner drives selective stabilization of the 14-3-3/ERRγ complex.[53] To validate selectivity, molecular locks 5 and 10 were tested against a panel of nine 14-3-3 client peptides in an FA assay, and the SF100 was determined for each 14-3-3 PPI (Figure 4b and Figures S18–S20). This client panel contained a diverse representation of 14-3-3 binding proteins, differing for example in size and hydrophobicity of the +1 amino acid. Importantly, clients PKR and RND3, each containing a +1 Cys, were included in the panel.
(§2) Figure S20. KD and SF100 plot – selectivity screen. […]
(§3) nine different client peptides in presence of DMSO (negative control) or 100 µM of compound 1, 5 or 10 (based on binding curves in Figure S19). […]
(§4) A pPROEX HTb expression vector encoding the human 14-3-3 protein gamma (14-3-3γ) with a N-terminal his6-tag was transformed by heat shock into NiCo21 (DE3) competent cells. […] Finally, the protein was concentrated to ∼60 mg/mL, analyzed Q-Tof LC/MS, and aliquots were flash-frozen for storage at −80 °C. […]

The target in a further test is T2, 14-3-3γ/PIN1 complex (Homo sapiens, UniProt P61981).
T2 construct: made in house; host or cells: E. coli NiCo21 (DE3)
T2 sequence (P61981 1-247): T1 sequence (P61981 1-247)
The test can be described thus: FA selectivity screen, PIN1 client peptide. The test is classed as binding. The following applies: 100 μM compound, PIN1 peptide (+1 Trp). As for the experimental part:
as §1, §2, §3, §4

As for `CN(C)CCSSCCN(C)C(=O)c1ccc(C=O)c(F)c1` [compound 5], the “off-target effect in client screen” value on 14-3-3γ/SOS1 complex and on 14-3-3γ/PIN1 complex was “minor off-target effects” throughout.
